Assay results as given in article doi:10.1101/283176v2 (biorxiv, 2018).

Target: LeuT (Aquifex aeolicus, UniProt O67854)
Test: scintillation proximity assay, displacement of [3H]leucine by alanine
Conditions: Na+ at its K0.5 (11.2 mM), pH 7.4 binding buffer, DDM

For C[C@H](N)C(=O)O [alanine], the KI-ala was 2.56 ± 0.51 µM.
